Drawing on paper PMC6383678 (Biochimica et biophysica acta. Biomembranes, 2019), this text covers equilibrium ligand binding for one molecule.

In the test the target is A2aR (hA2aR) (Homo sapiens, UniProt P29274). The experiment in a line: flow cytometry, fluorescent agonist equilibrium binding to HEK293-A2aR cells. Format: cell-based. (In general: A flow cytometer gives signals particle by particle.)
Chain of A2aR (hA2aR) (P29274 whole entry): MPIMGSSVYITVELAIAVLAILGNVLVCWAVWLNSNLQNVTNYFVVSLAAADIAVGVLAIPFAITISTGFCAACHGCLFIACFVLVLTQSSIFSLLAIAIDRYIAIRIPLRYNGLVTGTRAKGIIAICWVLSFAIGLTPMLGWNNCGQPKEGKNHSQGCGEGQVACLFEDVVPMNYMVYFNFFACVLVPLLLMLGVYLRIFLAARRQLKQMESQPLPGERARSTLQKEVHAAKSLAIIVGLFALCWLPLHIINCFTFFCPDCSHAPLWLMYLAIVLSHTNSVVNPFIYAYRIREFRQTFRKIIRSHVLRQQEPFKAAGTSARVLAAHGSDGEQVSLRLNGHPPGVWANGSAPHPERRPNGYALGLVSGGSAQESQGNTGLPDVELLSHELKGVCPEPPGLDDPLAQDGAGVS

`CCNC(=O)[C@H]1O[C@@H](n2cnc3c(N)nc(NCCc4ccc(CCC(=O)NCCNC(=S)Nc5ccc6c(c5)C(=O)OC65c6ccc(O)cc6Oc6cc(O)ccc65)cc4)nc32)[C@H](O)[C@@H]1O` [FITC-APEC]: the equilibrium ligand binding entry is listed as “equilibrium ligand binding of the fluorescent agonist APEC-FITC was unchanged following cholesterol depletion”.
